{
  "source": "patent US10106530B2",
  "about": "“Pyrazolyl substituted tetrahydropyranylsulfones” (GRÜNENTHAL GMBH, priority 2015, dated 2018)",
  "molecular_target": "T1, Human CaV2.2 channels (Homo sapiens, UniProt Q00975)",
  "T1 construct": "expressed in transfected cells; also stably expressing Kir2.3)",
  "T1 sequence (Q00975 whole entry)": "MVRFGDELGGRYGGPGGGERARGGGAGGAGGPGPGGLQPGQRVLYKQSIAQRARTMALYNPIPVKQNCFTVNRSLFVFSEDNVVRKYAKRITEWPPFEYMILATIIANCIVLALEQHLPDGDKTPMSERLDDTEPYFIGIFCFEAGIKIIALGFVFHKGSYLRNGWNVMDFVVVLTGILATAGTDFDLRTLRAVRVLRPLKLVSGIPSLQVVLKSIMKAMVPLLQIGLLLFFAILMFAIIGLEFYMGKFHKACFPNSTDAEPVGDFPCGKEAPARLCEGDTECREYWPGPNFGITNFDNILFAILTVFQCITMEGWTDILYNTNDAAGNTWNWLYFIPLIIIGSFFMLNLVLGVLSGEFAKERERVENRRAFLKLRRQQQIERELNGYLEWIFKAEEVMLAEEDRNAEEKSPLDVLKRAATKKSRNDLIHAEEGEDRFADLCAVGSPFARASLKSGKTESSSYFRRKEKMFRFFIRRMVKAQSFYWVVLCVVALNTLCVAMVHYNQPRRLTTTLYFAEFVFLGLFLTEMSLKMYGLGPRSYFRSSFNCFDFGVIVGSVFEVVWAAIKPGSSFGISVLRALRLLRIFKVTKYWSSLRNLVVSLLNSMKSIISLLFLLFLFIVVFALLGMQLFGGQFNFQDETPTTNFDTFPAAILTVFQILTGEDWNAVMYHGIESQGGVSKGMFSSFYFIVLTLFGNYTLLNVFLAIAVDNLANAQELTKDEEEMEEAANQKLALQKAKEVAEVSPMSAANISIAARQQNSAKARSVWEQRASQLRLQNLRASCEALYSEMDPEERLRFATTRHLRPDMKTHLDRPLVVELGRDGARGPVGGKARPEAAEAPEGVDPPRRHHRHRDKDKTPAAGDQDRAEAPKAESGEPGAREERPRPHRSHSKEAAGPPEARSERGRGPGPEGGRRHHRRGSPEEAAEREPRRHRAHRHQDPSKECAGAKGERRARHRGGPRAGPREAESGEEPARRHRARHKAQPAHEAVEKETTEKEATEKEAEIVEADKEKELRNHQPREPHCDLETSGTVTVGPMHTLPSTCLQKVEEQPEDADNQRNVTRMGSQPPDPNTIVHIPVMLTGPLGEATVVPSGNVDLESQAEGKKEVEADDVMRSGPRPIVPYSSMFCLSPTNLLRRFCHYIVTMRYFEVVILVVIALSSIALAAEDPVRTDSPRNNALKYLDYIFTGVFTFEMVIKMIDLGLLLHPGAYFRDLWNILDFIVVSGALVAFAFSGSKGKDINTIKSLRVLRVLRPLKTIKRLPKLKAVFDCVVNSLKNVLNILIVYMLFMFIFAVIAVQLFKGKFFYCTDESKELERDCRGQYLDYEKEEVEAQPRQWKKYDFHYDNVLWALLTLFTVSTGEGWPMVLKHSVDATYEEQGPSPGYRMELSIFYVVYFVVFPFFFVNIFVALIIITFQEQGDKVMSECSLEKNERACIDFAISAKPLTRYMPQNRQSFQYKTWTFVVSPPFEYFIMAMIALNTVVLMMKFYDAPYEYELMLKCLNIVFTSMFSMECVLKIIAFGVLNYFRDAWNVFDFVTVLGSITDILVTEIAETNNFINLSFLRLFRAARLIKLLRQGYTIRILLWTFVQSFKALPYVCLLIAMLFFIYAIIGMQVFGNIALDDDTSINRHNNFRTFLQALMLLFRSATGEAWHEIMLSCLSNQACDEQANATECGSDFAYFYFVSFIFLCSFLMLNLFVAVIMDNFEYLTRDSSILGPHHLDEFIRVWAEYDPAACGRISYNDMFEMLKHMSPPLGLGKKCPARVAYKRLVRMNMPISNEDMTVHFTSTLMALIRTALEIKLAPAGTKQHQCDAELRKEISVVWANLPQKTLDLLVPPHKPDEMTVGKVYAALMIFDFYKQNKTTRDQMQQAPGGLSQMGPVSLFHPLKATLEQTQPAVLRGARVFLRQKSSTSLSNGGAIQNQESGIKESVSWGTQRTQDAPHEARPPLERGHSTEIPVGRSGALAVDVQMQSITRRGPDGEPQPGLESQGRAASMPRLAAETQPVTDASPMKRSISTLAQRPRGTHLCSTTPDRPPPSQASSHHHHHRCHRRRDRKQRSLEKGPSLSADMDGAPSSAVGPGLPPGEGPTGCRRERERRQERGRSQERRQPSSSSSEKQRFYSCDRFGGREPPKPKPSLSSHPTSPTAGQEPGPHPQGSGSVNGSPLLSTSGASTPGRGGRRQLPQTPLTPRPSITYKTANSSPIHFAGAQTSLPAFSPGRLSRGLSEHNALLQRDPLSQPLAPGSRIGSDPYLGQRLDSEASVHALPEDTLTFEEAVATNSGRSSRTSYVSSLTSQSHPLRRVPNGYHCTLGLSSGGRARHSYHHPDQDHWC",
  "experiment": "Fluorescence assay for CaV2.2 channels using potassium depolarization to induce channel opening (FLIPR, Fluo 4)",
  "type": "cell-based",
  "settings": "30 mM KCl assay buffer (inactivated channel state), HEK293 cells; for inhibition at 3 µM: HEK293, 3 μM test compound, read-out: Activity Category: %-Inhib (CaV2.2) @3 μM @30 mM KCl; for Activity Category: %-Inhib (CaV2.2) @3 μM @30 mM KCl: 3 μM test compound",
  "text": "In the process, the Ca^2+ influx is quantified in the FLIPR assay with the aid of a Ca^2+-sensitive dye (type Fluo-4, Molecular Probes Europe BV, Leiden, the Netherlands) in a fluorescent imaging plate reader (FLIPR 3, Molecular Devices, Sunnyvale, USA), as described hereinafter.\n[drawing 69] 2. Assay Descriptions and Biological Data: 2.1 Fluorescence Assay for CaV2.2 Channels Using Potassium Depolarization to Induce Channel Opening\nHuman CaV2.2 channels were stably expressed in HEK293 cells together with alpha2-delta and beta subunits of voltage gated calcium channels. In addition, an inwardly rectifying potassium channel (Kir2.3) was stably expressed in these cells to augment control of the cell membrane potential by the concentration of extracellular potassium ions. Raise of the extracellular potassium concentration leads to depolarization of the membrane potential and thus regulates the voltage dependent state of CaV2.2 channels. For preparation, cells were seeded in black poly-D-lysine coated 96-well plates (Becton Dickinson, Biocoat 4640) in 100 μL medium [500 mL DMEM/F-12 plus Glutamax (Invitrogen 31331-093) plus 5.5 mL MEM NEAA 100× (Invitrogen 11140-035) plus 50 mL FBS decomplemented (Invitrogen 10270-106) plus 200 μg/mL Geneticin (Invitrogen 10131-027) plus 50 μg/mL Hygromycin B (Invitrogen 10687-010) plus 2 μg/mL Blasticidin (anti-b15b Invivo-Gen) plus 0.2 μg/mL Puromycin (A 11138-03)] at a cell density of 30.000 cells per well. Plates were incubated at 37° C. (5% CO2) for 20 to 23 h. On the day of experiment medium was discarded and cells were loaded with Fluo 4 by addition of 100 μL of basic assay buffer (10 mM HEPES, 1 mM KCl, 149 mM NaCl, 0.8 mM CaCl2, 1.7 mM MgCl2, 10 mM Glucose, 0.1% BSA. pH 7.4) containing 2 μM Fluo 4 (Molecular Probes; F-14201), 0.01% pluronic acid (Molecular Probes; P-6866) and 2.5 mM probenecid (Molecular Probes; P36400). Cells were incubated in the dark at 25° C. for 60 min. Then dye containing buffer was discarded and 100 μL basic (1 mM KCl) or alternative (30 mM KCl) assay buffer was added. The alternative assay buffer contained altered concentrations of KCl (30 mM) and NaCl (120 mM) and was used in order to promote the inactivated channel state. After that 25 μL of basic or alternative assay buffer with or without test compound were added and cells were incubated again in the dark at 25° C. for 15 min. Fluorescence intensity was measured on a FLIPR 3 instrument (Molecular Devices Corp., Sunnyvale, Calif.) with excitation at 480 nm and emission at 535 nm. After continuously reading fluorescence for 30 sec, 50 μL of basic assay buffer containing 210 mM KCl(NaCl omitted) were added for depolarization. Peak fluorescent signal intensity was determined and the amplitude of the peak signal, normalized to base line, was used to measure channel inhibition by test compounds.",
  "data": [
    {"smiles": "CC(C)(C(N)=O)c1cc(C2CC(C)(S(=O)(=O)c3cccc(C(F)(F)F)c3)CCO2)[nH]n1", "note": "(stereo not drawn) [Example 30 cis-EN2, 2-Methyl-2-[5-[4-methyl-4-[[3-(trifluoromethyl)phenyl]sulfonyl]-tetrahydro-pyran-2-yl]-1H-pyrazol-3-yl]-propionamide]", "values": [
      {"measurement": "inhibition at 3 µM", "result": "40 to 75", "unit": "%"}
    ]},
    {"smiles": "CC(C)(C#N)c1cc(C2CC(C)(S(=O)(=O)c3cccc(C(F)(F)F)c3)CCO2)[nH]n1", "note": "(stereo not drawn) [Example 31 cis-EN1, 2-Methyl-2-[5-[4-methyl-4-[[3-(trifluoromethyl)phenyl]sulfonyl]-tetrahydro-pyran-2-yl]-1H-pyrazol-3-yl]-propionitrile]", "values": [
      {"measurement": "inhibition at 3 µM", "result": "> 95", "unit": "%"}
    ]},
    {"smiles": "CC1(S(=O)(=O)c2cccc(C(F)(F)F)c2)CCOC(c2cc(OCC(F)F)n[nH]2)C1", "note": "(stereo not drawn) [Example 32 cis-EN1, 5-(2,2-Difluoro-ethoxy)-3-[4-methyl-4-[[3-(trifluoromethyl)phenyl]sulfonyl]-tetrahydro-pyran-2-yl]-1H-pyrazole]", "values": [
      {"measurement": "inhibition at 3 µM", "result": "> 95", "unit": "%"}
    ]},
    {"smiles": "CC1(S(=O)(=O)c2cccc(C(F)(F)F)c2)CCOC(c2cc(OCC(F)F)n[nH]2)C1", "note": "(stereo not drawn) [Example 32 cis-EN2, 5-(2,2-Difluoro-ethoxy)-3-[4-methyl-4-[[3-(trifluoromethyl)phenyl]sulfonyl]-tetrahydro-pyran-2-yl]-1H-pyrazole]", "values": [
      {"measurement": "Activity Category: %-Inhib (CaV2.2) @3 μM @30 mM KCl", "result": "B (%-Inhibition >75% up to ≤95%)"}
    ]},
    {"smiles": "COCC(C)(C)c1cc(C2CC(C)(S(=O)(=O)c3cccc(C(F)(F)F)c3)CCO2)[nH]n1", "note": "(stereo not drawn) [Example 33 cis-EN1, 3-(2-Methoxy-1,1-dimethyl-ethyl)-5-[4-methyl-4-[[3-(trifluoromethyl)phenyl]sulfonyl]-tetrahydro-pyran-2-yl]-1H-pyrazole]", "values": [
      {"measurement": "inhibition at 3 µM", "result": "> 95", "unit": "%"}
    ]},
    {"smiles": "CC(C)(CO)c1cc(C2CC(C)(S(=O)(=O)c3cccc(C(F)(F)F)c3)CCO2)[nH]n1", "note": "(stereo not drawn) [Example 34 cis-EN1, 2-Methyl-2-[5-[4-methyl-4-[[3-(trifluoromethyl)phenyl]sulfonyl]-tetrahydro-pyran-2-yl]-1H-pyrazol-3-yl]-propan-1-ol]", "values": [
      {"measurement": "inhibition at 3 µM", "result": "75 to 95", "unit": "%"}
    ]},
    {"smiles": "CC(C)CS(=O)(=O)c1cc(C2CC(C)(S(=O)(=O)c3cccc(C(F)(F)F)c3)CCO2)[nH]n1", "note": "(stereo not drawn) [Example 35 cis-EN1, 3-(2-Methyl-propylsulfonyl)-5-[4-methyl-4-[[3-(trifluoromethyl)phenyl]sulfonyl]-tetrahydro-pyran-2-yl]-1H-pyrazole]", "values": [
      {"measurement": "inhibition at 3 µM", "result": "75 to 95", "unit": "%"}
    ]},
    {"smiles": "CC(C)CS(=O)(=O)c1cc(C2CC(C)(S(=O)(=O)c3cccc(C(F)(F)F)c3)CCO2)[nH]n1", "note": "(stereo not drawn) [Example 35 cis-EN2, 3-(2-Methyl-propylsulfonyl)-5-[4-methyl-4-[[3-(trifluoromethyl)phenyl]sulfonyl]-tetrahydro-pyran-2-yl]-1H-pyrazole]", "values": [
      {"measurement": "Activity Category: %-Inhib (CaV2.2) @3 μM @30 mM KCl", "result": "A (%-Inhibition >95%)"}
    ]},
    {"smiles": "CC(C)(C)CS(=O)(=O)c1cc(C2CC(C)(S(=O)(=O)c3cccc(C(F)(F)F)c3)CCO2)[nH]n1", "note": "(stereo not drawn) [Example 36 cis-EN1, 3-(2,2-Dimethyl-propylsulfonyl)-5-[4-methyl-4-[[3-(trifluoromethyl)phenyl]sulfonyl]-tetrahydro-pyran-2-yl]-1H-pyrazole]", "values": [
      {"measurement": "inhibition at 3 µM", "result": "75 to 95", "unit": "%"}
    ]},
    {"smiles": "CC(C)(C)CS(=O)(=O)c1cc(C2CC(C)(S(=O)(=O)c3cccc(C(F)(F)F)c3)CCO2)[nH]n1", "note": "(stereo not drawn) [Example 36 cis-EN2, 3-(2,2-Dimethyl-propylsulfonyl)-5-[4-methyl-4-[[3-(trifluoromethyl)phenyl]sulfonyl]-tetrahydro-pyran-2-yl]-1H-pyrazole]", "values": [
      {"measurement": "Activity Category: %-Inhib (CaV2.2) @3 μM @30 mM KCl", "result": "A (%-Inhibition >95%)"}
    ]},
    {"smiles": "CC1(S(=O)(=O)c2cccc(C(F)(F)F)c2)CCOC(c2cc(S(C)(=O)=O)n[nH]2)C1", "note": "(stereo not drawn) [Example 37 cis-EN1, 5-Methylsulfonyl-3-[4-methyl-4-[[3-(trifluoromethyl)phenyl]sulfonyl]-tetrahydro-pyran-2-yl]-1H-pyrazole]", "values": [
      {"measurement": "Activity Category: %-Inhib (CaV2.2) @3 μM @30 mM KCl", "setting": "listed as 37 cis-EN1", "result": "C (%-Inhibition >40% up to ≤75%)"}
    ]},
    {"smiles": "CC1(S(=O)(=O)c2cccc(C(F)(F)F)c2)CCOC(c2cc(S(C)(=O)=O)n[nH]2)C1", "note": "(stereo not drawn) [Example 37 cis-EN2, 5-Methylsulfonyl-3-[4-methyl-4-[[3-(trifluoromethyl)phenyl]sulfonyl]-tetrahydro-pyran-2-yl]-1H-pyrazole]", "values": [
      {"measurement": "Activity Category: %-Inhib (CaV2.2) @3 μM @30 mM KCl", "setting": "listed as 37 cis-EN2", "result": "B (%-Inhibition >75% up to ≤95%)"}
    ]},
    {"smiles": "CC(C)(C#N)c1cc(C2CC(C)(S(=O)(=O)c3cccc(C(F)(F)F)n3)CCO2)[nH]n1", "note": "(stereo not drawn) [Example 38 cis-EN1, 2-Methyl-2-[5-[4-methyl-4-[[6-(trifluoromethyl)-pyridin-2-yl]sulfonyl]-tetrahydro-pyran-2-yl]-1H-pyrazol-3-yl]-propionitrile]", "values": [
      {"measurement": "Activity Category: %-Inhib (CaV2.2) @3 μM @30 mM KCl", "setting": "listed as 38 cis-EN1", "result": "C (%-Inhibition >40% up to ≤75%)"}
    ]},
    {"smiles": "CC(C)(C#N)c1cc(C2CC(C)(S(=O)(=O)c3cccc(C(F)(F)F)n3)CCO2)[nH]n1", "note": "(stereo not drawn) [Example 38 cis-EN2, 2-Methyl-2-[5-[4-methyl-4-[[6-(trifluoromethyl)-pyridin-2-yl]sulfonyl]-tetrahydro-pyran-2-yl]-1H-pyrazol-3-yl]-propionitrile]", "values": [
      {"measurement": "Activity Category: %-Inhib (CaV2.2) @3 μM @30 mM KCl", "setting": "listed as 38 cis-EN2", "result": "B (%-Inhibition >75% up to ≤95%)"}
    ]},
    {"smiles": "CC1(S(=O)(=O)c2cccc(C(F)(F)F)c2)CCOC(c2cc(S(=O)(=O)C(F)F)n[nH]2)C1", "note": "(stereo not drawn) [[cis-EN1] Example 1, 3-(Difluoro-methylsulfonyl)-5-[4-methyl-4-[[3-(trifluoromethyl)phenyl]sulfonyl]-tetrahydro-pyran-2-yl]-1H-pyrazole]", "values": [
      {"measurement": "inhibition at 3 µM", "result": "75 to 95", "unit": "%"}
    ]},
    {"smiles": "CC1(S(=O)(=O)c2cccc(C(F)(F)F)c2)CCOC(c2cc(C(F)F)[nH]n2)C1", "note": "(stereo not drawn) [[cis-EN1] Example 12, 5-(Difluoro-methyl)-3-[4-methyl-4-[[3-(trifluoromethyl)phenyl]sulfonyl]-tetrahydro-pyran-2-yl]-1H-pyrazole]", "values": [
      {"measurement": "inhibition at 3 µM", "result": "75 to 95", "unit": "%"}
    ]},
    {"smiles": "CC1(S(=O)(=O)c2cccc(C(F)(F)F)c2)CCOC(c2cc(C(F)F)[nH]n2)C1", "note": "(stereo not drawn) [[cis-EN2] Example 12] [5-(Difluoro-methyl)-3-[4-methyl-4-[[3-(trifluoromethyl)phenyl]sulfonyl]-tetrahydro-pyran-2-yl]-1H-pyrazole]", "values": [
      {"measurement": "Activity Category: %-Inhib (CaV2.2) @3 μM @30 mM KCl", "result": "A (%-Inhibition >95%)"}
    ]}
  ]
}
